Experimental data reported in patent US20240132531A1, “NOVEL GALACTOSIDE INHIBITOR OF GALECTINS” (GALECTO BIOTECH AB, priority 2020, published 2024).

Tests used:
galectin-1 = galectin-1 (Homo sapiens, UniProt P09382); assay: Fluorescence anisotropy assay, affinity for galectin-1; type: binding; conditions: compound as inhibitor of the interaction between galectin and a fluorescein tagged saccharide probe; read-out: Gal-1 Kd
Description: (§1) The affinity of Example 1-39 for galectins were determined by a fluorescence anisotropy assay where the compound was used as an inhibitor of the interaction between galectin and a fluorescein tagged saccharide probe as described Sarme, P., Kahl-Knutsson, B., Huflejt, M., Nilsson, U. J., and Leffler H. (2004) Fluorescence polarization as an analytical tool to evaluate galectin-ligand interactions. Anal. Biochem. 334: 36-47, (Sarme et al., 2004) and Monovalent interactions of Galectin-1 By Salomonsson, Emma; Larumbe, Amaia; Tejler, Johan; Tullberg, Erik; Rydberg, Hanna; Sundin, Anders; Khabut, Areej; Frejd, Torbjorn; Lobsanov, Yuri D.; Rini, James M.; et al, From Biochemistry (2010), 49(44), 9518-9532, (Salomonsson et al., 2010).

galectin-3 = galectin-3 (Homo sapiens, UniProt P17931); assay: Fluorescence anisotropy assay, affinity for galectin-3; type: binding; conditions: compound as inhibitor of the interaction between galectin and a fluorescein tagged saccharide probe; read-out: Gal-3 Kd
Sequence of galectin-3 (P17931 whole entry): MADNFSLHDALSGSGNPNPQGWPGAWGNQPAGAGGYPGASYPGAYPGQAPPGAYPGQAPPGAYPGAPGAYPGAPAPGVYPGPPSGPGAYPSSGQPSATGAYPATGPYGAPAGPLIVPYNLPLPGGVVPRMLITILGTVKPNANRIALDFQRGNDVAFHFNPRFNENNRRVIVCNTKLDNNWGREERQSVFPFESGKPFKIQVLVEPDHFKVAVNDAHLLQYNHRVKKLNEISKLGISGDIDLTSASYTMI
Description: as §1

Sequence of galectin-1 (P09382 whole entry): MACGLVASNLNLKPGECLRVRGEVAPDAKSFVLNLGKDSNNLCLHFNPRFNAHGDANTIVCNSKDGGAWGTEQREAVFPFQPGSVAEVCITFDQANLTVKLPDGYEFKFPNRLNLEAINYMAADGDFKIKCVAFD

Row | Kd (galectin-1) [nM] | Kd (galectin-3) [nM] | Compound
1 | 36 | 200 | OCC1O[C@@H](c2ccnn2-c2cc(Br)c(F)cc2C(F)(F)F)C(O)[C@@H](n2cc(-c3nc(Cl)cs3)nn2)[C@H]1O (stereo partly drawn) [Example 24, 5-Bromo-1-{5-{3-[4-(4-chlorothiazol-2-yl)-1H-1,2,3-triazol-1-yl]-3-deoxy-β-D-galactopyranosyl}-1H-1,2-pyrazol-1-yl}-4-fluoro-2-(trifluoromethyl)benzene]
2 | 40 | 180 | COC1C(n2cc(-c3nc(Cl)cs3)nn2)[C@@H](O)C(CO)O[C@H]1c1cc(Cl)nn1-c1cc(Cl)ccc1C(F)(F)F (stereo partly drawn) [Example 25, 1-{5-{3-[4-(4-Chlorothiazol-2-yl)-1H-1,2,3-triazol-1-yl]-3-deoxy-2-O-methyl-β-D-galactopyranosyl}-3-chloro-1H-1,2-pyrazol-1-yl}-5-chloro-2-(trifluoromethyl)benzene]
3 | 66 | 750 | COC1C(n2cc(-c3nc(Cl)cs3)nn2)[C@@H](O)C(CO)O[C@H]1c1cc(Br)nn1-c1cc(Cl)ccc1C(F)(F)F (stereo partly drawn) [Example 26, 1-{3-Bromo-5-{3-[4-(4-chlorothiazol-2-yl)-1H-1,2,3-triazol-1-yl]-3-deoxy-2-O-methyl-β-D-galactopyranosyl}-1H-1,2-pyrazol-1-yl}-5-chloro-2-(trifluoromethyl)benzene]
4 | 540 | 1200 | C=C(C)c1cc([C@@H]2OC(CO)[C@H](O)C(n3cc(-c4nc(Cl)cs4)nn3)C2OC)n(-c2cc(Cl)ccc2C(F)(F)F)n1 (stereo partly drawn) [Example 27, 1-{5-{3-[4-(4-Chlorothiazol-2-yl)-1H-1,2,3-triazol-1-yl]-3-deoxy-2-O-methyl-β-D-galactopyranosyl}-3-(1-methylethenyl)-1H-1,2-pyrazol-1-yl}-5-chloro-2-(trifluoromethyl)benzene]
5 | 180 | 320 | COC1C(n2cc(-c3nc(Cl)cs3)nn2)[C@@H](O)C(CO)O[C@H]1c1cc(C(C)C)nn1-c1cc(Cl)ccc1C(F)(F)F (stereo partly drawn) [Example 28, 1-{5-{3-[4-(4-Chlorothiazol-2-yl)-1H-1,2,3-triazol-1-yl]-3-deoxy-2-O-methyl-β-D-galactopyranosyl}-3-isopropyl-1H-1,2-pyrazol-1-yl}-5-chloro-2-(trifluoromethyl)benzene]
6 | 190 | 480 | C=Cc1cc([C@@H]2OC(CO)[C@H](O)C(n3cc(-c4nc(Cl)cs4)nn3)C2OC)n(-c2cc(Cl)ccc2C(F)(F)F)n1 (stereo partly drawn) [Example 29, 1-{5-{3-[4-(4-Chlorothiazol-2-yl)-1H-1,2,3-triazol-1-yl]-3-deoxy-2-O-methyl-β-D-galactopyranosyl}-3-ethenyl-1H-1,2-pyrazol-1-yl}-5-chloro-2-(trifluoromethyl)benzene]
7 | 100 | 680 | CCc1cc([C@@H]2OC(CO)[C@H](O)C(n3cc(-c4nc(Cl)cs4)nn3)C2OC)n(-c2cc(Cl)ccc2C(F)(F)F)n1 (stereo partly drawn) [Example 30, 1-{5-{3-[4-(4-Chlorothiazol-2-yl)-1H-1,2,3-triazol-1-yl]-3-deoxy-2-O-methyl-β-D-galactopyranosyl}-3-ethyl-1H-1,2-pyrazol-1-yl}-5-chloro-2-(trifluoromethyl)benzene]
8 | 71 | 400 | COC1C(n2cc(-c3nc(Cl)cs3)nn2)[C@@H](O)C(CO)O[C@H]1c1cc(C#N)nn1-c1cc(Cl)ccc1C(F)(F)F (stereo partly drawn) [Example 31, 1-{5-{3-[4-(4-Chlorothiazol-2-yl)-1H-1,2,3-triazol-1-yl]-3-deoxy-2-O-methyl-β-D-galactopyranosyl}-3-cyano-1H-1,2-pyrazol-1-yl}-5-chloro-2-(trifluoromethyl)benzene]
9 | 50 | 650 | COC1C(n2cc(-c3nc(Cl)cs3)nn2)[C@@H](O)C(CO)O[C@H]1c1ccnn1-c1cc(Cl)cnc1C(F)(F)F (stereo partly drawn) [Example 32, 3-{5-{3-[4-(4-Chlorothiazol-2-yl)-1H-1,2,3-triazol-1-yl]-3-deoxy-2-O-methyl-β-D-galactopyranosyl}-1H-1,2-pyrazol-1-yl}-5-chloro-2-(trifluoromethyl)pyridine]
